We go through one molecule from patent US20150224177A1 (priority 2014, published 2015).

Values after ≈ are worked out from the molar mass of the structure shown. Read-outs that look alike come from different tables or passages of the source.

One assay deals with B. pseudomallei isolates. In words: microbe, parasite or virus in culture. Type of assay: cell-based, Burkholderia pseudomallei.
Assay [1] relates to B. pseudomallei strains 1026b and MSHR 305. Format: cell-based, Burkholderia pseudomallei.
The test system of a further assay is Bacillus anthracis. Format: cell-based.
The next assay deals with Burkholderia mallei. Put plainly: microbe, parasite or virus in culture. Format: cell-based. The conditions noted are these: for MIC: Burkholderia mallei.
The subject of the next assay is Yersinia pestis. In words: microbe, parasite or virus in culture. Particulars: for MIC: Yersinia pestis. Format: cell-based.
Setting [2] is: read-out: MIC values (limit of detection) for OSCN^− with and without bLF.
Where [3] appears, read: read-out: Minimal Inhibitory Concentration.

`N#CSO` [OSCN^−, hypothiocyanite]: in the assay with B. pseudomallei isolates, the “concentration of OSCN^− alone that inhibited all isolates” value is “less than 63.3 μg/mL” and the “inhibition of growth, overall result in words” value is “effective in vitro to inhibit the growth”. Further, in the assay on B. pseudomallei isolates (Burkholderia pseudomallei, NCTC13392, read-out: Minimal Inhibitory Concentration), the MIC fell in the range of 48.7 to 61.2 µg/mL (≈ 649 to 815 µM). Also, in assay [1], the “bacterial counts (limit of detection) through 6 h post inoculation” value is less than 33 CFU/mL; the “bactericidal effect, overall result in words” value is on record as “substantial bactericidal effect”; the “detectable CFUs from T2h to T6h” value is reported as “no detectable CFUs”; the “growth at T24h” value is given as “no MSHR 305 growth was detected”. Also, in assay [1], the “kill curve: evolution of microbial load during time” value is on record as “immediate decrease of microbial load after 2 hours”, the “reduction at T24h as compared with the untreated controls” value was 1.5 to 2 log10, the “reduction at T24h compared with the untreated control” value is given as approximately 2.5 log10 and the “reduction of final bacterial concentration at T24h as compared with the untreated controls” value is recorded as “at least 1.5 log10”. Moreover, in the assay with Bacillus anthracis, the “inhibition of growth, result in words” value is given as “MICs at or below the detection limit”. Further, in the assay with Burkholderia mallei, the “inhibition of growth, result in words” value is reported as “very effective against both strains tested”. Besides, the MIC with Burkholderia mallei (setting [2]) was not above 25.9 µg/mL. Moreover, the MIC in the assay with Burkholderia mallei (setting [3]) is not above 25.9 µg/mL. For the same molecule, the “inhibition of growth, result in words” value in the assay with Yersinia pestis is given as “very effective against both strains tested”. Also, in the assay with Yersinia pestis (setting [2]), the MIC is not above 30.3 µg/mL. Moreover, the MIC with Yersinia pestis (setting [3]) is not above 30.3 µg/mL.
